Values joined by “and” are separate entries in the source; they are usually repeats but may differ in a detail not shown here. Equal entries are not always repeated.
Legend:
Assay in all cases: SelectScreen kinase panel
Assay type in all cases: biochemical
PRAK = target: T1, PRAK (Homo sapiens, UniProt Q8IW41)
T1 construct: purchased Invitrogen / ThermoFisher SelectScreen
Experimental: (§1) The ability of NIK to catalyze the hydrolysis of adenosine-5′-triphosphate (ATP) was monitored using the Transcreener ADP (adenosine-5′-diphosphate) assay (Bell Brook Labs, Fitchburg, WI). Purified human NIK kinase domain (a.a. 340–694) (0.5 nM) or mouse NIK kinase domain (a.a. 329–675) (1 nM) derived from a baculovirus-infected insect cell expression system was incubated with test compounds for 0.5–2 h in 50 mM HEPES buffer (pH 7.2) containing 10 mM MgCl2, 2 mM dithiothreitol, 10 μM ATP, 0.01% Triton X-100, 0.1% gamma-globulins from bovine blood, 1% dimethylsulfoxide (DMSO), 7 μg/mL ADP antibody and 5 nM ADP-MR121 633 tracer. Reactions were quenched by the addition of 20 mM EDTA and 0.01% Brij 35. The tracer bound to the antibody was displaced by the ADP generated during the NIK reaction, which caused a decrease in fluorescence polarization that was measured by laser excitation at 633 nm with a Fluorescence Correlation Spectroscopy Plus reader (Evotec AG). Equilibrium dissociation constant (Ki) values for NIK inhibitors are calculated from plots of activity vs. inhibitor concentration using Morrison’s quadratic equation that accounts for the potential of tight binding, and by also applying the conversion factor that accounted for competitive inhibition and the concentration of substrate used in the assay relative to its Michaelis constant (Km). The Ki values with hPKD1 (PKCμ) were determined using the same assay conditions as for NIK. Ki measurements for hKHS1 and hLRRK2, as well as broad kinase selectivity profiling for SMI1, were carried out by Invitrogen using their SelectScreen kinase assay panel (ThermoFisher Scientific, Madison, WI). The vendor offered two types of kinase activity assays, a peptide phosphorylation assay (Z′-LYTE) and an ADP quantitation assay (Adapta), as well as one type of kinase ATP site competitive binding assay (LanthaScreen). See vendor web site for technology and protocol details for each specific kinase assay.
(§2) The average % Inhibition of each kinase is reported (Supplementary Table 1).

PAK6 = target: T2, PAK6 (Homo sapiens, UniProt Q9NQU5)
T2 construct: purchased Invitrogen / ThermoFisher SelectScreen
Experimental: as §1, §2

Frk = target: T3, Frk (Homo sapiens, UniProt P42685)
T3 construct: purchased Invitrogen / ThermoFisher SelectScreen
Experimental: as §1, §2

MAP4K4 = target: T4, MAP4K4 (Homo sapiens, UniProt O95819)
T4 construct: purchased Invitrogen / ThermoFisher SelectScreen
Experimental: as §1, §2

eEF-2K = target: T5, eEF-2K (Homo sapiens, UniProt O00418)
T5 construct: purchased Invitrogen / ThermoFisher SelectScreen
T5 sequence (O00418 whole entry): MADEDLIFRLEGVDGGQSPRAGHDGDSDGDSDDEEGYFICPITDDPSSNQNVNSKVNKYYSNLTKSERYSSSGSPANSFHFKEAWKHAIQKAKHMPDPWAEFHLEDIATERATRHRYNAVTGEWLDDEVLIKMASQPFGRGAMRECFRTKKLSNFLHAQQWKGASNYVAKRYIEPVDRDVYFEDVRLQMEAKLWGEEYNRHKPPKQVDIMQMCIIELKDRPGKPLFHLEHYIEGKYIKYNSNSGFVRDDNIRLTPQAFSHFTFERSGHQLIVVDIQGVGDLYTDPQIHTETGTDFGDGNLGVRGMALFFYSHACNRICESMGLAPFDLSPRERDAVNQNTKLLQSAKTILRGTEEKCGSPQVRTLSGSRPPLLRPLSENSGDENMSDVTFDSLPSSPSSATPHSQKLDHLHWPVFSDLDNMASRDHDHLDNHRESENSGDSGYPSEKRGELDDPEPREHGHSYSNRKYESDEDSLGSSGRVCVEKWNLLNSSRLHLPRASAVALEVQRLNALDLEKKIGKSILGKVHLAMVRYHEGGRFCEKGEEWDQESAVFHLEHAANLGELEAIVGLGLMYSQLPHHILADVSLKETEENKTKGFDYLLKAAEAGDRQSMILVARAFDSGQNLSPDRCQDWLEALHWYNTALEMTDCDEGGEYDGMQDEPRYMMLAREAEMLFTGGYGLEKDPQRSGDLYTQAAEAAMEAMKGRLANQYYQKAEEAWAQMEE
Experimental: as §1, §2

CamKII_alpha = target: T6, CamKII_alpha (Homo sapiens, UniProt Q9UQM7)
T6 construct: purchased Invitrogen / ThermoFisher SelectScreen
Experimental: as §1, §2

CLK3 = target: T7, CLK3 (Homo sapiens, UniProt P49761)
T7 construct: purchased Invitrogen / ThermoFisher SelectScreen
Experimental: as §1, §2

MST2 = target: T8, MST2 (Homo sapiens, UniProt Q13188)
T8 construct: purchased Invitrogen / ThermoFisher SelectScreen
Experimental: as §1, §2

CK1_alpha1 = target: T9, CK1_alpha1 (Homo sapiens, UniProt P48729)
T9 construct: purchased Invitrogen / ThermoFisher SelectScreen
Experimental: as §1, §2

Mink1 = target: T10, Mink1 (Homo sapiens, UniProt Q8N4C8)
T10 construct: purchased Invitrogen / ThermoFisher SelectScreen
Experimental: as §1, §2

DAPK1 = target: T11, DAPK1 (Homo sapiens, UniProt P53355)
T11 construct: purchased Invitrogen / ThermoFisher SelectScreen
Experimental: as §1, §2

PAK4 = target: T12, PAK4 (Homo sapiens, UniProt O96013)
T12 construct: purchased Invitrogen / ThermoFisher SelectScreen
Experimental: as §1, §2

GSK3_beta = target: T13, GSK3_beta (Homo sapiens, UniProt P49841)
T13 construct: purchased Invitrogen / ThermoFisher SelectScreen
Experimental: as §1, §2

Lck = target: T14, Lck (Homo sapiens, UniProt P06239)
T14 construct: purchased Invitrogen / ThermoFisher SelectScreen
T14 sequence (P06239 whole entry): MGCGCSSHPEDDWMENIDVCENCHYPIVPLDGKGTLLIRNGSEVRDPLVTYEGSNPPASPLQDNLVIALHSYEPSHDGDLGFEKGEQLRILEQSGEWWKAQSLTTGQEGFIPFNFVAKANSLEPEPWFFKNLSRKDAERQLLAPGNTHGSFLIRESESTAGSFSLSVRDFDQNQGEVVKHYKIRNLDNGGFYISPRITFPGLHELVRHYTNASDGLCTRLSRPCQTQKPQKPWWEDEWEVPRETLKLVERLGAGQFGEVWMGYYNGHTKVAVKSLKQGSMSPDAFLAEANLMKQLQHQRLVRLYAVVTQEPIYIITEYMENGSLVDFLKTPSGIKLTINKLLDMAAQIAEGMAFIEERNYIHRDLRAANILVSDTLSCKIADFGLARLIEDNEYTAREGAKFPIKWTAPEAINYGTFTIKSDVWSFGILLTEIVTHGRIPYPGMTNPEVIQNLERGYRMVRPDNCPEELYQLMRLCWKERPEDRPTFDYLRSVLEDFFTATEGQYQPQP
Experimental: as §1, §2

NEK9 = target: T15, NEK9 (Homo sapiens, UniProt Q8TD19)
T15 construct: purchased Invitrogen / ThermoFisher SelectScreen
Experimental: as §1, §2

TYK2 = target: T16, TYK2 (Homo sapiens, UniProt P29597)
T16 construct: purchased Invitrogen / ThermoFisher SelectScreen
Experimental: as §1, §2

HIPK2 = target: T17, HIPK2 (Homo sapiens, UniProt Q9H2X6)
T17 construct: purchased Invitrogen / ThermoFisher SelectScreen
Experimental: as §1, §2

Src = target: T18, Src (Homo sapiens, UniProt P12931)
T18 construct: purchased Invitrogen / ThermoFisher SelectScreen
T18 sequence (P12931 whole entry): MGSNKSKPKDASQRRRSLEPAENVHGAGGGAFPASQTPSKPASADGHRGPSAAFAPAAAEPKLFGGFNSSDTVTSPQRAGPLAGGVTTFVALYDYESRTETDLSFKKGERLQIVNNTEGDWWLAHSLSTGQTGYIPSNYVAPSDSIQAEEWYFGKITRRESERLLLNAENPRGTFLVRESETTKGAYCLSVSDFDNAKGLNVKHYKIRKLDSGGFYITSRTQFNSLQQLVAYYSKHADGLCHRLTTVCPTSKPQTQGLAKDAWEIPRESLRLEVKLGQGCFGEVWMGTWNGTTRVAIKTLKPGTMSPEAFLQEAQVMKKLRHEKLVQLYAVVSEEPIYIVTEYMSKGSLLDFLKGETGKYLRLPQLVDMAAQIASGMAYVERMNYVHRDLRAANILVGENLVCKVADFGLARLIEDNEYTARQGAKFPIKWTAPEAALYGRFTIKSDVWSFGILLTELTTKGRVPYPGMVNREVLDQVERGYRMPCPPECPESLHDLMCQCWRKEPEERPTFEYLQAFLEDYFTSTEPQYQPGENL
Experimental: as §1, §2

CHK2 = target: T19, CHK2 (Homo sapiens, UniProt O96017)
T19 construct: purchased Invitrogen / ThermoFisher SelectScreen
T19 sequence (O96017 whole entry): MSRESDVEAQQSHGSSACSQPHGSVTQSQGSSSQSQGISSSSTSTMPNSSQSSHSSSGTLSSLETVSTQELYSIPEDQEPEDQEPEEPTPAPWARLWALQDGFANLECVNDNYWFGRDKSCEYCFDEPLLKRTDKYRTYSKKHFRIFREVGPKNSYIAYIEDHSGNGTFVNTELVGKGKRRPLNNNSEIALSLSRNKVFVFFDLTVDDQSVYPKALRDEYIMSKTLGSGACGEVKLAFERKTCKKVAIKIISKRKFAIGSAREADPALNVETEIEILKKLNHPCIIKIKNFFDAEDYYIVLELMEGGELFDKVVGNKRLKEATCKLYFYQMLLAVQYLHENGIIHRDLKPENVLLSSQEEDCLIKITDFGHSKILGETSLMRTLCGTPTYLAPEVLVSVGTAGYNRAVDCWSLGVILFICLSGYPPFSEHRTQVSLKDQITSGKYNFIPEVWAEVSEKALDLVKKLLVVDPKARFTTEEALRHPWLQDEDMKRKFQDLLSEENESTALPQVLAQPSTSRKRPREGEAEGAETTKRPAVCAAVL
Experimental: as §1, §2

Axl = target: T20, Axl (Homo sapiens, UniProt P30530)
T20 construct: purchased Invitrogen / ThermoFisher SelectScreen
T20 sequence (P30530 26-894): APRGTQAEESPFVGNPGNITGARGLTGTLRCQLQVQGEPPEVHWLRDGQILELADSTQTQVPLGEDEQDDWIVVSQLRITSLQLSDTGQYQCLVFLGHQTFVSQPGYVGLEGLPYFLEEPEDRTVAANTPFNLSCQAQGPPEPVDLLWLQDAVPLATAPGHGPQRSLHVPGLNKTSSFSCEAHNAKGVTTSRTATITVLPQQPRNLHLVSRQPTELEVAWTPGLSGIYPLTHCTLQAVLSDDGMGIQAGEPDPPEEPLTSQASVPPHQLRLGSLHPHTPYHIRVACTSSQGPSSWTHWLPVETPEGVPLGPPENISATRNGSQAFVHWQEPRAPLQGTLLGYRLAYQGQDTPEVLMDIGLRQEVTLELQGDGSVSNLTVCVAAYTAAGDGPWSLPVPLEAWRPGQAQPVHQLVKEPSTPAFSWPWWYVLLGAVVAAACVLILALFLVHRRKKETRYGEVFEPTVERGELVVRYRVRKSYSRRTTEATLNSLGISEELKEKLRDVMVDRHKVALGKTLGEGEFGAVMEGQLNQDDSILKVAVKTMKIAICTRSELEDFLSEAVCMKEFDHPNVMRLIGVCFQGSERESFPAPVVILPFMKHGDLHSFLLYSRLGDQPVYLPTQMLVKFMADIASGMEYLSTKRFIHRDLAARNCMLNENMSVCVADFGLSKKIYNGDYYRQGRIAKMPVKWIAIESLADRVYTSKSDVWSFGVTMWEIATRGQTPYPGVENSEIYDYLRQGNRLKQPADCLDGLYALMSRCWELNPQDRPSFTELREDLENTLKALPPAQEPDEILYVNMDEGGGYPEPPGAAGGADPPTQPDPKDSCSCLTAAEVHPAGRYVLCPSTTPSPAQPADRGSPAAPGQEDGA
Experimental: as §1, §2

Cot = target: T21, Cot (Homo sapiens, UniProt P41279)
T21 construct: purchased Invitrogen / ThermoFisher SelectScreen
T21 sequence (P41279 whole entry): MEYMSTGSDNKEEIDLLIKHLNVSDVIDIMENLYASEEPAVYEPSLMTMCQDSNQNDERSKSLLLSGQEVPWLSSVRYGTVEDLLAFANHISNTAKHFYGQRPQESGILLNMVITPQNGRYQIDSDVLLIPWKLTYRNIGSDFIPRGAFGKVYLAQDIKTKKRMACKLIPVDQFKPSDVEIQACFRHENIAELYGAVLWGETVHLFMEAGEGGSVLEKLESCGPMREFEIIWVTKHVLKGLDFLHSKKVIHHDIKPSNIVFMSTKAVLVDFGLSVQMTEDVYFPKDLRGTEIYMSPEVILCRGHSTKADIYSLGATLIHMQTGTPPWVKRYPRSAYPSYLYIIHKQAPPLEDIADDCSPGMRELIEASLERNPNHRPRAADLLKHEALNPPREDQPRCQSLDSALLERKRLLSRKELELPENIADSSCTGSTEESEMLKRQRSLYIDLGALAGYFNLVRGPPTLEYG
Experimental: as §1, §2

JAK2 = target: T22, JAK2 (Homo sapiens, UniProt O60674)
T22 construct: purchased Invitrogen / ThermoFisher SelectScreen
Experimental: as §1, §2

MSSK1 = target: T23, MSSK1 (Homo sapiens, UniProt Q9UPE1)
T23 construct: purchased Invitrogen / ThermoFisher SelectScreen
Experimental: as §1, §2

KHS1 = target: T24, KHS1 (Homo sapiens, UniProt Q9Y4K4); conditions: NIK SMI1 1 µM; ATP Km app
T24 construct: purchased Invitrogen / ThermoFisher SelectScreen
T24 sequence (Q9Y4K4 whole entry): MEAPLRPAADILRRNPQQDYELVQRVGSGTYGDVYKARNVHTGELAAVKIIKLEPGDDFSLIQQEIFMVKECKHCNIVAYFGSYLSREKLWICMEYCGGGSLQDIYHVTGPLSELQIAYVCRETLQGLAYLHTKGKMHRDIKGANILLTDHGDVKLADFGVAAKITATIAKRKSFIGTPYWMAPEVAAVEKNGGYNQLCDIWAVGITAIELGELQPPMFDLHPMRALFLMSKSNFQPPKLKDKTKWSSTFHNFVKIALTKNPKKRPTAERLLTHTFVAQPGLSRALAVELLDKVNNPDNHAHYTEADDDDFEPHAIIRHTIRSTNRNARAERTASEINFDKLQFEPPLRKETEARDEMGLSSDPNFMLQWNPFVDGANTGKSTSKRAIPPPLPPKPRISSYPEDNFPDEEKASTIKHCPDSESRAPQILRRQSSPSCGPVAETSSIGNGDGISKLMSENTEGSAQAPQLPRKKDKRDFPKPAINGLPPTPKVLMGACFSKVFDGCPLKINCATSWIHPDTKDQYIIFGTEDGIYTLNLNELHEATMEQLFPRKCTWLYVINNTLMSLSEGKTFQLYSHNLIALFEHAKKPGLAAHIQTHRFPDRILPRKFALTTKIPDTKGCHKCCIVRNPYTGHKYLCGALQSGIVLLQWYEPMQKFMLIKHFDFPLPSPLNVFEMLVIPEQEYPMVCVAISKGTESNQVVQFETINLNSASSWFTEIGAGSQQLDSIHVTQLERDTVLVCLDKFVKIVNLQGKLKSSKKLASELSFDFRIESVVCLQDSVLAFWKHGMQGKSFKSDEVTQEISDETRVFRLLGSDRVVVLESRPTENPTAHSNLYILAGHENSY
Experimental: as §1, §2

Flt4 = target: T25, Flt4 (Homo sapiens, UniProt P35916)
T25 construct: purchased Invitrogen / ThermoFisher SelectScreen
Experimental: as §1, §2

SGK3 = target: T26, SGK3 (Homo sapiens, UniProt Q96BR1)
T26 construct: purchased Invitrogen / ThermoFisher SelectScreen
Experimental: as §1, §2

DYRK3 = target: T27, DYRK3 (Homo sapiens, UniProt O43781)
T27 construct: purchased Invitrogen / ThermoFisher SelectScreen
Experimental: as §1, §2

PI3K- A = target: T28, PI3K- A (Homo sapiens, UniProt P42336)
T28 construct: purchased Invitrogen / ThermoFisher SelectScreen
Experimental: as §1, §2

MKNK1 = target: T29, MKNK1 (Homo sapiens, UniProt Q9BUB5)
T29 construct: purchased Invitrogen / ThermoFisher SelectScreen
Experimental: as §1, §2

MSK1 = target: T30, MSK1 (Homo sapiens, UniProt O75582)
T30 construct: purchased Invitrogen / ThermoFisher SelectScreen
Experimental: as §1, §2

P38_gamma = target: T31, P38_gamma (Homo sapiens, UniProt P53778)
T31 construct: purchased Invitrogen / ThermoFisher SelectScreen
T31 sequence (P53778 whole entry): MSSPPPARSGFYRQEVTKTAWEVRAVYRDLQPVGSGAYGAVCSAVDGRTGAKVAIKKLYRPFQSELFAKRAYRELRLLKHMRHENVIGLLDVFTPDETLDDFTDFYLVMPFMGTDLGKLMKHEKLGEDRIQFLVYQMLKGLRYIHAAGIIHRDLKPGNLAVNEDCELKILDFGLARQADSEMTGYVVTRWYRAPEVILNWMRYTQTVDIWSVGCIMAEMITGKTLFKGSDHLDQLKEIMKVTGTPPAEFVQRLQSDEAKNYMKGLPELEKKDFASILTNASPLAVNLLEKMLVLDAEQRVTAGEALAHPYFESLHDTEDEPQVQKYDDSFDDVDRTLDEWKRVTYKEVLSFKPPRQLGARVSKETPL
Experimental: as §1, §2

SPHK1 = target: T32, SPHK1 (Homo sapiens, UniProt Q9NYA1)
T32 construct: purchased Invitrogen / ThermoFisher SelectScreen
Experimental: as §1, §2

For COc1cc(C(N)=O)nc(-c2cccc(C#C[C@]3(O)CCN(C)C3=O)c2)c1 [NIK SMI1], the inhibition at 1 µM (PRAK) was 6%, the inhibition at 1 µM (PAK6) was 31.5% and the inhibition at 1 µM (Frk) was 18%. It also gave an inhibition at 1 µM (MAP4K4) of 45.5%, an inhibition at 1 µM (eEF-2K) of 4% and an inhibition at 1 µM (CamKII_alpha) of 17.5%. The inhibition at 1 µM (CLK3) was 14.5%, the inhibition at 1 µM (MST2) was 28% and the inhibition at 1 µM (CK1_alpha1) was 2%. The inhibition at 1 µM (Mink1) was 53.5%, the inhibition at 1 µM (DAPK1) was 15.1% and the inhibition at 1 µM (PAK4) was 64%. For the same compound, the inhibition at 1 µM (GSK3_beta) was 5%, the inhibition at 1 µM (Lck) was 0.5% and the inhibition at 1 µM (NEK9) was 1.5%. The inhibition at 1 µM (TYK2) was 2%, the inhibition at 1 µM (HIPK2) was 17.5% and the inhibition at 1 µM (Src) was -1.5%. The inhibition at 1 µM (CHK2) was 4.5%, the inhibition at 1 µM (Axl) was 9.3% and the inhibition at 1 µM (Cot) was 34.5%. The inhibition at 1 µM (JAK2) was 8.5%, the inhibition at 1 µM (MSSK1) was 11.5% and the “% Inhibition” value (KHS1) was > 75% and 96%. It also gave an inhibition at 1 µM (Flt4) of 9%, an inhibition at 1 µM (SGK3) of -0.5% and an inhibition at 1 µM (DYRK3) of 1.5%. For the same compound, the inhibition at 1 µM (PI3K- A) was -7.5%, the inhibition at 1 µM (MKNK1) was 2% and the inhibition at 1 µM (MSK1) was 7.5%. It also gave an inhibition at 1 µM (P38_gamma) of 14% and an inhibition at 1 µM (SPHK1) of 21.3%.

From article PMC5766581, “NF-κB inducing kinase is a therapeutic target for systemic lupus erythematosus” (Nature Communications, 2018)
